Laboratory results reported in ChEMBL document CHEMBL5465560, “Selectivity Literature for EUbOPEN Chemogenomic Library” (2024).

Legend:
Focal adhesion kinase 1 = Focal adhesion kinase 1 (Homo sapiens, UniProt Q05397); assay: Selectivity interaction (Kinase panel (Z-LYTE Assay)) EUB0001632a PTK2; settings: at 10 µM
[1] = biological target: Tyrosine-protein kinase BTK (Homo sapiens, UniProt Q06187); assay: Selectivity interaction (KinomeScan (DiscoverX)) EUB0000666a BTK; settings: at 10 µM
[2] = biological target: Mitogen-activated protein kinase 1 (Homo sapiens, UniProt P28482); assay: Selectivity interaction (Kinase panel (DSF assay)) EUB0001559a MAPK1
Mitogen-activated protein kinase 1, sequence (P28482 whole entry): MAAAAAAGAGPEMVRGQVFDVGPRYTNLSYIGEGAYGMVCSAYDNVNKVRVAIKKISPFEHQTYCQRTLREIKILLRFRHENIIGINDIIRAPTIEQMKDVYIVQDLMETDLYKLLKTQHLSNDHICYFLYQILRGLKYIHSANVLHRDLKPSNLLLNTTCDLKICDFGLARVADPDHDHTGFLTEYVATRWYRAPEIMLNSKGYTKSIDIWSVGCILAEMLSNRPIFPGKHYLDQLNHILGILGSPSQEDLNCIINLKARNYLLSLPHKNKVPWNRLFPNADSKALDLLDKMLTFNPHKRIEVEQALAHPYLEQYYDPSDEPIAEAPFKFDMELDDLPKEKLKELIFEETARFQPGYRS

[3] = biological target: T1, Dual specificity mitogen-activated protein kinase kinase 4 (Homo sapiens) (UniProt P45985); assay: Selectivity interaction (Ambit KINOMEscan and KiNATiv profiling in Jurkat cells) EUB0000090b MAP2K4; format: cell-based; settings: at 1 µM
T1 sequence (whole entry): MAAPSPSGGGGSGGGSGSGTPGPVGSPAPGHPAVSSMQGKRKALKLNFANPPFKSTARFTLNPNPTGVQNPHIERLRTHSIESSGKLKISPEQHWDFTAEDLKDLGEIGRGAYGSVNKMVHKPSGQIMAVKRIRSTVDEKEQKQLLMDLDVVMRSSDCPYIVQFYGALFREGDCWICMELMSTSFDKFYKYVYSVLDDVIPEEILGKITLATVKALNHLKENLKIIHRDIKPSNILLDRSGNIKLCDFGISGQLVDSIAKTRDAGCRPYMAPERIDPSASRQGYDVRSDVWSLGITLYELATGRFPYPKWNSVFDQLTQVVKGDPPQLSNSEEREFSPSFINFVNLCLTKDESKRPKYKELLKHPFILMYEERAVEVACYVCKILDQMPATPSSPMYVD

[4] = biological target: Mitogen-activated protein kinase kinase kinase kinase 5 (Homo sapiens) (UniProt Q9Y4K4); assay: Selectivity interaction (KinomeScan (DiscoverX)) EUB0000655a MAP4K5; settings: at 10 µM
Mitogen-activated protein kinase kinase kinase kinase 5 (Homo sapiens), sequence (Q9Y4K4 whole entry, looked up): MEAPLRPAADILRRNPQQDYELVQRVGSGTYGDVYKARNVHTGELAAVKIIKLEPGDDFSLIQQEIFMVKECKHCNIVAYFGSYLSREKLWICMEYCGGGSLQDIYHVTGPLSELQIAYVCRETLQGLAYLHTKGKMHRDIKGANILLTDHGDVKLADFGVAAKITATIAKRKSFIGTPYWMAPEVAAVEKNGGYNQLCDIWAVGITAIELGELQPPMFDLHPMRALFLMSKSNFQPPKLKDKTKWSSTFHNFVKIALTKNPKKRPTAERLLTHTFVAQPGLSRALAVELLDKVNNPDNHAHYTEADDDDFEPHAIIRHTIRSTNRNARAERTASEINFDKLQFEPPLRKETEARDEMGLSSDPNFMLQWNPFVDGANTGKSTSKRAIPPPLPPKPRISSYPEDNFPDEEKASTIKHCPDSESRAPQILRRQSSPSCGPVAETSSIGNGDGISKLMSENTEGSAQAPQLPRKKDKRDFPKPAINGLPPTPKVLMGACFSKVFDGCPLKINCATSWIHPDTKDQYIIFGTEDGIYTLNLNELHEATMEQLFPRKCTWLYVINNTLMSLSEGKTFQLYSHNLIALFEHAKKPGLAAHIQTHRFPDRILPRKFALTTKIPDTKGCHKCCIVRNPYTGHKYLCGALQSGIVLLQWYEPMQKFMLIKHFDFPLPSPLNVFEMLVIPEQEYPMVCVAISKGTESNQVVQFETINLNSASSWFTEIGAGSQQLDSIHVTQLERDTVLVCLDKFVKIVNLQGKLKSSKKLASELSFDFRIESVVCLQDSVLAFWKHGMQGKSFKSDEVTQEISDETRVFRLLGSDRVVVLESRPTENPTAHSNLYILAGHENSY

[5] = biological target: T2, Tyrosine-protein kinase Mer (Homo sapiens) (UniProt Q12866); assay: Selectivity interaction (KinomeScan (DiscoverX)) EUB0000655a MERTK; settings: at 10 µM
T2 sequence (whole entry): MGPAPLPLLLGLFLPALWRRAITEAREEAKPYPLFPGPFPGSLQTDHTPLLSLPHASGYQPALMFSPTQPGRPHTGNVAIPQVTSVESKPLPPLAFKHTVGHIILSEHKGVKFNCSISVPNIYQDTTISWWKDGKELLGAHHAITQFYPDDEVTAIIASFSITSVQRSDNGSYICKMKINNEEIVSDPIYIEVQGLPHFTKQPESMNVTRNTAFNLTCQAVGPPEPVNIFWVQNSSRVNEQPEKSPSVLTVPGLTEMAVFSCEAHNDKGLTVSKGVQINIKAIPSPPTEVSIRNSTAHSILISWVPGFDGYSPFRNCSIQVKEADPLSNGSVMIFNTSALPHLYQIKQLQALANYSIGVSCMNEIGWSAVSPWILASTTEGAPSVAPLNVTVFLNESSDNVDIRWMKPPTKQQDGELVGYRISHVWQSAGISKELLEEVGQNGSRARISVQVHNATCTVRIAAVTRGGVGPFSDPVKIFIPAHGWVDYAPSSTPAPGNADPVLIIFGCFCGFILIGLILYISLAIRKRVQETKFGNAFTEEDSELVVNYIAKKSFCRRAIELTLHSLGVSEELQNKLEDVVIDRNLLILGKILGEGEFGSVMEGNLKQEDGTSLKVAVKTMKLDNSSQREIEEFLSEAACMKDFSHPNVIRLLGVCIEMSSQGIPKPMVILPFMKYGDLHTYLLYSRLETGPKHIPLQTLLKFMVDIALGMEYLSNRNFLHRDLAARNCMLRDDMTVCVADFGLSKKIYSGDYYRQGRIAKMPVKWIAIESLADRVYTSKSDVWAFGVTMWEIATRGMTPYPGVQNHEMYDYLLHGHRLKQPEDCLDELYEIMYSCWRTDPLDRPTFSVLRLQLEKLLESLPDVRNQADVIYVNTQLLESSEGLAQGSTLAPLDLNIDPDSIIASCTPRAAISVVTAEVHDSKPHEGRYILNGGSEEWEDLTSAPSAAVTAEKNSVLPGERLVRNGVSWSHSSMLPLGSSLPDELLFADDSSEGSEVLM

[6] = test system: Epidermal growth factor receptor (Homo sapiens), P00533 [UNDEFINED MUTATION]; assay: Selectivity interaction (KinomeScan (DiscoverX)) EUB0000045b EGFR; settings: at 10 µM
Epidermal growth factor receptor (Homo sapiens), P00533 [UNDEFINED MUTATION], sequence (P00533 whole entry, looked up, change not shown): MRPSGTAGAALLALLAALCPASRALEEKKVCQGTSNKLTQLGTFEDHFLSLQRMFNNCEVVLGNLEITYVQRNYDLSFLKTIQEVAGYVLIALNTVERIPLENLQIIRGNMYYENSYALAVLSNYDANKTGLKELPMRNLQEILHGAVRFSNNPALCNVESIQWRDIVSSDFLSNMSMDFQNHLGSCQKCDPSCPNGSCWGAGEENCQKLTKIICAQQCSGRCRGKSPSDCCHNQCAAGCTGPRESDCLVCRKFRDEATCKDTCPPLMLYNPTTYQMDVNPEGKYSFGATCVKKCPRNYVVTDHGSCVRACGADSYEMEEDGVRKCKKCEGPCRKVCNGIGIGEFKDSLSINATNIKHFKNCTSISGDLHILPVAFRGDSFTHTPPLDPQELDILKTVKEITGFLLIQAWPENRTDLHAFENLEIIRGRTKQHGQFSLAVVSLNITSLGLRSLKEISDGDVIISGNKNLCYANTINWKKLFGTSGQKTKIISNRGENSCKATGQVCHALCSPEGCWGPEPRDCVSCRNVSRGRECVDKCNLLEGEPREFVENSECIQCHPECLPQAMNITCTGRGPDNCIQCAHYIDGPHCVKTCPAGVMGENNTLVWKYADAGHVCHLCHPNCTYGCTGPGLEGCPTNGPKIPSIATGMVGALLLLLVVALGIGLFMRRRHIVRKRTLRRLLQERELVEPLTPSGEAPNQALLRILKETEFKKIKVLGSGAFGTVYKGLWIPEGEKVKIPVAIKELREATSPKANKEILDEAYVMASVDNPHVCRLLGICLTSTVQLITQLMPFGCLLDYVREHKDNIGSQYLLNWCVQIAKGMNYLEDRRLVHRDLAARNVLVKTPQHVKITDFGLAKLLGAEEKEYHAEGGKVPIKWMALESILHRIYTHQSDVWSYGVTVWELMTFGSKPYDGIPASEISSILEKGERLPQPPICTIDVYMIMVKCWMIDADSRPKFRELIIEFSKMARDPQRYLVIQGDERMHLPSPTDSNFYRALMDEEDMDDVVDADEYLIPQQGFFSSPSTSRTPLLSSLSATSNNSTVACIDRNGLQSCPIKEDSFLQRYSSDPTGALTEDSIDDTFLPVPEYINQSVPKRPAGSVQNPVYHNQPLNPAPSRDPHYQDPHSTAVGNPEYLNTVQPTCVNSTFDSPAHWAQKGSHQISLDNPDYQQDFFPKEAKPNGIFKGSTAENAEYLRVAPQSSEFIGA

[7] = biological target: T3, Histone-lysine N-methyltransferase SUV39H1 (Homo sapiens) (UniProt O43463); assay: Selectivity interaction (Transferase panel (protein, RNA, and DNA methyltransferases. and EP300 (acetyltransferase))) EUB0000270b SUV39H1
T3 sequence (whole entry): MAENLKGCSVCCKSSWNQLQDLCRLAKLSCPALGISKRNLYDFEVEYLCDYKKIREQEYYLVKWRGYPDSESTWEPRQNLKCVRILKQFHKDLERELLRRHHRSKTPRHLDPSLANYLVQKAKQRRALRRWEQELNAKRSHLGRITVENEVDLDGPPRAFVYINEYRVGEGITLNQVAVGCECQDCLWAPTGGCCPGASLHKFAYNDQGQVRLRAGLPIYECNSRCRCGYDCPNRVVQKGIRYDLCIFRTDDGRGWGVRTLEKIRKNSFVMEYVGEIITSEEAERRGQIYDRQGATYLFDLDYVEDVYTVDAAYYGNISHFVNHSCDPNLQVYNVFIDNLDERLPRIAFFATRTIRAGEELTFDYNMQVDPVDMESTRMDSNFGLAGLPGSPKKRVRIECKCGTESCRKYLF

[8] = biological target: Phosphatidylinositol 4,5-bisphosphate 3-kinase catalytic subunit beta isoform (Homo sapiens) (UniProt P42338); assay: Selectivity interaction (KinomeScan (DiscoverX)) EUB0000618a PIK3CB; settings: at 10 µM

Tyrosine-protein kinase BTK, sequence (Q06187 whole entry): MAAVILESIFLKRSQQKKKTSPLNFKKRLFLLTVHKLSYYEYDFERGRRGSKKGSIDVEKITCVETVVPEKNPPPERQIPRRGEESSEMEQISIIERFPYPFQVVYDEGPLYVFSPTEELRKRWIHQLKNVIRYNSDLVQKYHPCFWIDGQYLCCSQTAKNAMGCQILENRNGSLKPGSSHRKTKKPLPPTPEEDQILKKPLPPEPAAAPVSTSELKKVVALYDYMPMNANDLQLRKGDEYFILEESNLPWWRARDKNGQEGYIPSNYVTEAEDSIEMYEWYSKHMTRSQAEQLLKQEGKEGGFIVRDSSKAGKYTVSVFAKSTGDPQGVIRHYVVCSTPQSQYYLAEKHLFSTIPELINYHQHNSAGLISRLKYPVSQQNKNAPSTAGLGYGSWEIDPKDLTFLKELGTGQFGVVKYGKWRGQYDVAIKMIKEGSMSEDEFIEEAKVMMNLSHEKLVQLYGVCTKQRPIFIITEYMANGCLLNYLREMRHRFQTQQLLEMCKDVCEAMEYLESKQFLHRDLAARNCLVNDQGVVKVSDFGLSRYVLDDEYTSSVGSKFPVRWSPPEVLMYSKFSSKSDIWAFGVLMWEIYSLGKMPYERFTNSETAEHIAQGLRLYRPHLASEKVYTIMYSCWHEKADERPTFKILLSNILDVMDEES
Focal adhesion kinase 1, sequence (Q05397 2-1052 limits assumed): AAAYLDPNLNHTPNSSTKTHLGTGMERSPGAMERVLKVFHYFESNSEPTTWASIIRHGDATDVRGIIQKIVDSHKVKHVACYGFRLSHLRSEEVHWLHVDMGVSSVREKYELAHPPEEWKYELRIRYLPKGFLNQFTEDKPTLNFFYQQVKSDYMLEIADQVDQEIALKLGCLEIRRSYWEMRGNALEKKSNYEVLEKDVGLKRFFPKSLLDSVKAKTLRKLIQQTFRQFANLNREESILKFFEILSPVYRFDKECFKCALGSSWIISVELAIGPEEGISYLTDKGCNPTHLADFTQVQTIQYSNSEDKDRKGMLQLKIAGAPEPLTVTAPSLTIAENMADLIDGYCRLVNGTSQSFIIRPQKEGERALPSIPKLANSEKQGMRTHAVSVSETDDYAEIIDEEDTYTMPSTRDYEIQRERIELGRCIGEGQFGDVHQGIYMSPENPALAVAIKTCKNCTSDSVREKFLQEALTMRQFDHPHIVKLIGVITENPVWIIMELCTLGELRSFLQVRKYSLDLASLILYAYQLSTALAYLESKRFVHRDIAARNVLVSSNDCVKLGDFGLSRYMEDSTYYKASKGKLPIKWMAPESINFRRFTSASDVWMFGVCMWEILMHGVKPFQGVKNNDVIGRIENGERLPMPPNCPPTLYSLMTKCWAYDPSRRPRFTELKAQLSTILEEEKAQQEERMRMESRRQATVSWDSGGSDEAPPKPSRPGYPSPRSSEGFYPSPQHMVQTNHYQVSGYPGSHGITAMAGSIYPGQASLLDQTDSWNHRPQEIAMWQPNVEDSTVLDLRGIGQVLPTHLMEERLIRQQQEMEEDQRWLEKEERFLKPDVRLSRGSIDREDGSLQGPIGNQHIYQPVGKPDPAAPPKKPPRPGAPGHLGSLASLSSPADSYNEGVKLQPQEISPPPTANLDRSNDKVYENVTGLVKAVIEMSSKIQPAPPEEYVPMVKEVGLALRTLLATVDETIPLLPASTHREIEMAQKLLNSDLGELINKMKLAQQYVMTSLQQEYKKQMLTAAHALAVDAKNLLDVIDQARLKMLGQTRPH

**Q.** How did the % of control (Focal adhesion kinase 1) turn out when `Cn1cc(-n2cnc3c(NCc4nc5cc(Cl)c(Cl)cc5[nH]4)nc(N4CCOCC4)nc32)cn1` was run?
**A.** 5.39%

**Q.** Which % of control [1] does the source give for `O=C(NOC[C@H](O)CO)c1ccc(F)c(F)c1Nc1ccc(I)cc1F` here?
**A.** 87%

**Q.** Which dTM [2] does the source give for `CN(C(=O)c1cnn2cccnc12)c1cc2c(cc1N1CCOCC1)C(=O)N(C[C@@H](F)C(C)(C)O)C2` here?
**A.** -1 K

**Q.** Which % of control [3] does the source give for `CN(C)C/C=C/C(=O)Nc1ccc(C(=O)N2CCCC(Nc3ncc(Cl)c(-c4c[nH]c5ccccc45)n3)C2)cc1` (stereo not given) here?
**A.** 70%

**Q.** For `CN(C)CCOc1ccc(-c2nc(-c3ccncc3)c(-c3ccc4c(c3)CC/C4=N\O)[nH]2)cc1`, which % of control [4] is on record?
**A.** 97%

**Q.** What about the % of control [5] of the same molecule?
**A.** 87%

**Q.** Which % of control [6] does the source give for `C=CC(=O)Nc1cc(-n2c(=O)ccc3cnc4ccc(-c5ccc(NS(C)(=O)=O)cc5)cc4c32)ccc1C` here?
**A.** 62%

**Q.** What does the source list for `Cc1cc(CN)cc(C)c1-c1ncn(C)c1-c1cncn1C`?
**A.** % activity ([7]; at 1 µM): > 90%; % activity ([7]; at 10 µM): > 80%

**Q.** How did the % of control [8] turn out when `O[C@H]1CC[C@H](Nc2ncc3nc(Nc4c(F)cc(F)cc4F)n([C@H]4CCOC4)c3n2)CC1` was run?
**A.** 100%
